One substance from patent US7256024B2, “Tyrissamycin antibiotic” (Bristol-Myers Squibb Company, priority 1998, dated 2007) can be followed below.

For series [1], the system named is Enterococcus faecalis. Kind of series: MIC, microtiter dilution technique. The series is classed as cell-based. The note with it: Mueller-Hinton broth, 37° C., 16-24 hours. The protocol: (§1) Tyrissamycin was evaluated in vitro to detemine the minimal inhibitory concentrations (MIC) against seven gram-positive bacteria using the microtiter dilution technique. This method is described by T. B. Conrath, “Handbook of Microtiter Procedures,” Dynatech Corp., Cambridge, Mass., USA (1972); and T. L. Gavan et al “Microdilution Test Procedures,” in Manual of Clinical Microbiology, E. H. Lennette, Ed., American Soc. for Microbiol., Washington, D.C., USA (1980). These tests are performed in accordance with procedures established by the National Committee on Clinical Laboratory Standards (NCCLS). The test procedure is as follows: Each well of a sterile 96-well microdilution tray is filled under aseptic conditions with 0.1 ml of Mueller-Hinton broth. A 0.05-ml sample of the test compound solution is added to a well in the first row of the tray. A microdilutor apparatus is used to simultaneously mix the contents of these wells and to transfer aliquots to each succeeding row of cells to obtain a range of serially diluted solutions. The last row of wells is untreated and serves as a control. Each well containing broth and test compound is inoculated with about ten microliters of inoculum of a given test microorganism. One well in the last row of wells (which is free of test compound) is not inoculated and is used as a sterility control. The trays are sealed and incubated at 37° C. for 16-24 hours.

Series [2] concerns Enterococcus faecium. Description: MIC, microtiter dilution technique. In kind it is cell-based. The note with it: Mueller-Hinton broth, 37° C., 16-24 hours. On the procedure:
as §1

Series [3] has as its system Staphylococcus aureus. Kind of series: MIC, microtiter dilution technique. The series is classed as cell-based. The note with it: Mueller-Hinton broth, 37° C., 16-24 hours. The protocol:
as §1

Series [4] has as its system Staphylococcus epidermidis. Kind of series: MIC, microtiter dilution technique. The series is classed as cell-based. The note with it: Mueller-Hinton broth, 37° C., 16-24 hours. On the procedure:
as §1

Series [5] concerns Staphylococcus haemolyticus. Kind of series: MIC, microtiter dilution technique. The series is classed as cell-based. The note with it: Mueller-Hinton broth, 37° C., 16-24 hours. The protocol: as §1
In series [6] the test system is Streptococcus pneumoniae. Kind of series: MIC, microtiter dilution technique. The series is classed as cell-based. The note with it: Mueller-Hinton broth, 37° C., 16-24 hours. The protocol:
as §1

In series [7] the test system is Streptococcus pyogenes. Description: MIC, microtiter dilution technique. In kind it is cell-based. The note with it: Mueller-Hinton broth, 37° C., 16-24 hours. On the procedure: as §1
For series [8], the system named is Staphylococcus aureus strain SA1. Description: Well-agar diffusion biological assay. The series is classed as cell-based. The note with it: sample 5 mg/ml; S. aureus SA1; 7 mm agar wells; fractions of final purification. On the procedure:
Assays for detection and evaluation of the antibacterial activity of tyrissamycin employ various strains of Staphylococcus aureus. The primary biological assay system consists of S. aureus strain SA1.
SA1 is grown at 37° C. overnight in Antibiotic Assay Broth (BBL, Cockeysville, Md.). The culture is centrifuged at 4000 rpm for 10 minutes and the medium is decanted. Cells are resuspended in 0.9% saline. The culture is adjusted to 25% transmission (600 nm wavelength) using a Coleman Junior Spectrophotometer. This 25% working cell suspension is stored at 4° C. for use as the assay inoculum.
All biological assays employ agar diffusion techniques. Assay agar is Seed Agar (BBL) supplemented after autoclaving with 4% of phosphate-nitrate buffer, pH 7.0, and 0.3% of a 2% solution of triphenyltetrazolium chloride. For well-agar diffusion assays, assay agar is seeded with 1% of the working cell suspension of SA1. The seeded agar is poured into Petri dishes or bioassay trays and allowed to harden. Wells (7 mm diameter) are cut in the agar, and 40 μl sample aliquots are added to the wells. (For some assays, 3 μl of sample are spotted directly on the surface of the agar). Plates are incubated at 37° C. for 18-24 hours, and zones of inhibition (if any) are measured. Inhibition zone sizes correlated with the activity of tyrissamycin in various samples.
In general terms: In agar diffusion tests the substance spreads into inoculated agar from a disc or well.

Series [9] is described as follows: Solubility. In kind it is physicochemical. From the text: A purified sample of tyrissamycin was isolated as a white amorphous powder. […] FIG. 3 (CD3OD) • ^13C-NMR: See FIG. 4 (CD3OD)

On to tyrissamycin, for which the “Minimal Inhibitory Concentration” value came out at 32 µg/mL in series [1]; 64 µg/mL in [2]; 32 µg/mL in [3]; 32 µg/mL in series [4]; 32 µg/mL in series [5]; 4 µg/mL in series [6]. For the same substance, the “Minimal Inhibitory Concentration” value in [7] was determined as 4 µg/mL. In series [8], the “Inhibition Zone” value was 14.0 mm. Besides, the Solubility result is listed as “Soluble” in [9] (in chloroform), “Soluble” in series [9] (in dimethylsulfoxide (DMSO)), “Soluble” in series [9] (in methanol) and “practically insoluble” in series [9] (in water).
